The values that follow come from US20210299069A1, “PSAMMAPLIN A FOR MODULATING IDO EXPRESSION” (IDOGEN AB, priority 2016, published 2021).

Data set [1] deals with CNS (XF498) cancer cell line. The settings on record: cited from earlier work.
For data set [2], the target named is hepatitis C virus NS3 helicase (Hepatitis C virus genotype 1a, UniProt P27958). The settings on record: dose-response relationship, cited from earlier work.
In data set [3] the test system is skin (SK-MEL-2) cancer cell line. As to conditions: cited from earlier work.
Data set [4] has as its system collagen-induced arthritis mouse model. Put plainly: Treatment of collagen-induced arthritis in vivo. As to conditions: DBA/1 mice, 10 mg/kg for 4 days from arthritis onset, scores monitored 10 days, vs vehicle. The procedure:
DBA/1 mice were immunized with bovine type II collagen emulsified in complete Freund's adjuvant. The mice were treated with psammaplin A (10 mg/kg) for 4 days, starting on the day of arthritis onset. Treatment was then stopped. Negative controls received vehicle alone. Clinical scores were monitored for 10 days following onset of arthritis. A clinical scoring system was used as follows. Arthritis severity was scored by an experienced non-blinded investigator as follows: 0=normal, 1=slight swelling and/or erythema, 2=pronounced swelling, 3=ankylosis. All four limbs were scored, giving a maximum possible score of 12 per animal.
The procedure under “Treatment of collagen-induced arthritis in vivo” was followed.
Disease severity was evaluated daily and the mean clinical score of each treatment group was determined. The data points on the graph in FIG. 2 are the mean±SEM of the mice in each treatment.

Data set [5] relates to methicillin-resistant Staphylococcus aureus (MRSA). As to conditions: gram-positive bacteria, in particular MRSA; cited from earlier work.
Data set [6] relates to IDO1 expression in THP-1 cells. Put plainly: Induction of IDO1 in THP-1 cells (RT-qPCR). Format: cell-based, human. The settings on record: for IDO1 expression (fold change): 96 hours, vs DMSO control. The procedure: THP-1 cells were harvested from appropriate number of T75 flasks. Cells were counted in a Bürker chamber, stained with 0.4% Trypan Blue. The appropriate number of cells for each experiment were transferred to a new tube and centrifuged at 1200 rpm, 5 min at room temperature (RT). The supernatant was discarded and fresh RPMI with 5% FBS was added to get a cell concentration of 2×10^5 cells/mL. The compound was added to the five separate wells in 6-well plates such that five different final concentrations were obtained after adding the cells. A control was added to one well in the 6-well plate to which cells were added. 1×10^6 cells per well were seeded out to achieve a total volume of 5 mL per well. The cells were incubated at 37° C. in 5% CO2 for 96 hours. After 96 hours the assay was stopped and the cells were lysed for the isolation of RNA.
Total RNA was extracted from THP-1 cells using the RNA RNeasy Mini extraction kit (Qiagen), according to the manufacturer's instructions. A SuperScript® VILO™ RT-kit (Thermo Fisher) was used to reverse transcribe 1 μg of total RNA to cDNA and qPCR was performed. The primers used for amplification of the human IDO1 gene were 5″-[…]-3″ (forward; SEQ ID No. 1) and 5″-[…]-3″ (reverse; SEQ ID No. 2). The primers used for amplification of the endogenous reference gene for human HPRT1 were 5″-[…]-3″ (forward; SEQ ID No. 3) and 5″-[…]-3″ (reverse; SEQ ID No. 4). In brief, RT-qPCR was performed in 20 μl reaction, consisting 10 μl PowerUp SYBR Green Master Mix, 0.5 μM of each primer, 4 μl diluted cDNA for amplification of IDO1 and 1.5 μl diluted cDNA for amplification of HPRT1. An iCycler iQ real-time detection system (Stratagene, Mx3000P, La Jolla, Calif., USA) with the following thermal profile: UDG incubation at 50° C. for 2 min, then denaturation at 95° C. for 5 min, followed by 45 cycles at 94° C. for 15 s, 58° C. for 30 s, and 60° C. for 30 s, was used to perform thermocycling and real-time detection of PCR products. After amplification a melting curve analysis was performed. The RT-qPCR experiments were always run in triplicate. IDO1 was normalised to the geometric means of two HPRT1 reference gene, using the ΔCt method. Within-group comparisons were normalized to one control sample, using the ΔΔCt method.
The procedure under “Induction of IDO1 in THP-1 cells” was followed such that the final concentrations set out in Table 1 were obtained.
Following RNA extraction and quantification of gene expression by RT-qPRC, as described above, induction of IDO1 gene expression using Samples 1 to 6 was investigated.
In general terms: In qPCR the cycle at which signal appears reflects the starting amount.

Data set [7] relates to ovarian (SK-OV-3) cancer cell line. As to conditions: cited from earlier work.
Another data set has as its system naïve CD4+ CD25− T cells. Put plainly: Conversion of CD4+CD25− T cells into CD4+FoxP3+ Tregs in vitro. Format: cell-based. The procedure:
To assess the effect of psammaplin A on the generation of Tregs, naïve CD4+ CD25− T cells were cultured with mitomycin C treated APCs plus IL-2, TGFβ and anti-CD3 in the presence or absence of psammaplin A and numbers of CD4^+ FoxP3^+ Tregs were determined by FACS after 72 h. The RNA was isolated from cell lysate, and reverse transcribed to cDNA for RT-qPCR analysis using Taqman primer probes. Expression of genes encoding Foxp3 was normalized to HPRT expression and was calibrated relative to vehicle group.
The procedure under “Conversion of CD4+CD25− T cells into CD4+FoxP3+ Tregs in vitro” was followed. The frequencies of CD4+FoxP3+ Tregs were determined by FACS after 72 h (FIG. 3A and 3B).

Data set [8] concerns colon (HCT15) cancer cell line. As to conditions: cited from earlier work.
Data set [9] relates to human lung (A549) cancer cell line. As to conditions: cited from earlier work.

hepatitis C virus NS3 helicase, sequence (P27958 1027-1657): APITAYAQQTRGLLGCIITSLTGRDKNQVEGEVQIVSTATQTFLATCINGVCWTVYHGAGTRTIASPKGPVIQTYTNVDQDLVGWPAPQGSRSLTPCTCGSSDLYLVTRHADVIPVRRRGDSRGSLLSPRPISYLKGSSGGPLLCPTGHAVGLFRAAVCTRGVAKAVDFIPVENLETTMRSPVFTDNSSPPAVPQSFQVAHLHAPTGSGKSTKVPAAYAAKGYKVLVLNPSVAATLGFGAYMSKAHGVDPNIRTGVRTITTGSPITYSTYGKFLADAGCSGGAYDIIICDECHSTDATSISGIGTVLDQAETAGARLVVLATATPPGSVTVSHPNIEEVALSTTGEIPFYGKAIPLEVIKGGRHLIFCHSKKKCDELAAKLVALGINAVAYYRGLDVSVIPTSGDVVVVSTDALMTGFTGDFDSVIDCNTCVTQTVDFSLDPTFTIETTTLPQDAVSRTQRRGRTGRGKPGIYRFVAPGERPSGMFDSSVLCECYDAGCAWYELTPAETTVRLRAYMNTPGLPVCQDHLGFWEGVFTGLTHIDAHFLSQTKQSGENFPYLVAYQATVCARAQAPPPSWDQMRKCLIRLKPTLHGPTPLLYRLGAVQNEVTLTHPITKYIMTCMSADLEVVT

With `O=C(NCCSSCCNC(=O)/C(Cc1ccc(O)c(Br)c1)=N/O)/C(Cc1ccc(O)c(Br)c1)=N/O` [psammaplin A], the cytotoxicity result in data set [1], in data set [3], in data set [7], in [8] and in data set [9] was “significant cytotoxicity” in each case. Also, in [2], the “NS3 ATPase activity inhibition” value is “inhibits NS3 helicase and ATPase activities”. Moreover, the “NS3 helicase activity inhibition” value in [2] (non-competitive) is “inhibits NS3 helicase”. In addition, in data set [4], the “disease severity (mean clinical score)” value is “successful in reducing disease severity”. Moreover, the antimicrobial effect entry in data set [5] was “antimicrobial effect”. Moreover, the “IDO1 expression (fold change)” value in data set [6] (0.05 micromolar) is 0.9 fold change; in [6] (0.1 micromolar), 0.6 fold change; in data set [6] (1 micromolar), 0.9 fold change; in data set [6] (3 micromolar), 4.5 fold change; in data set [6] (5 micromolar), 20 fold change. In addition, in [6] (psammaplin A alone, highest level at 5 micromolar), the “increase of IDO1 gene expression (maximum)” value is recorded as “up to 20 fold”. Moreover, the “frequencies of CD4+FoxP3+ Tregs (FACS)” value with naïve CD4+ CD25− T cells (co-culture with mitomycin C treated APCs plus IL-2, TGFβ and anti-CD3, 72 h, vs control (nil)) was “increased in a dose-dependent manner”. Also, in the data set on naïve CD4+ CD25− T cells (normalized to HPRT, relative to vehicle group (nil)), the “relative expression of the Foxp3 gene (RT-qPCR)” value was “increased in a dose-dependent manner”.
